Measurements published in US6867284B1, “Peptide inhibitors of hepatitis C virus NS3 protease” (Istituto di Ricerche di Biologia Molecolare P. Angeletti …, priority 1998, dated 2005).

molecular target: T1, HCV NS3 protease (Hepatitis C virus genotype 1b, UniProt P26663); test: Inhibition of NS3 protease (HPLC cleavage assay, NS3/4A complex with Pep4AK, substrate peptide 4AB); format: biochemical; details: Table 2 tetrapeptides and tripeptides; read-out: IC50
T1 construct: an NS3/4A complex comprising the NS3 protease domain
T1 sequence (P26663 1027-1208, other chains not shown): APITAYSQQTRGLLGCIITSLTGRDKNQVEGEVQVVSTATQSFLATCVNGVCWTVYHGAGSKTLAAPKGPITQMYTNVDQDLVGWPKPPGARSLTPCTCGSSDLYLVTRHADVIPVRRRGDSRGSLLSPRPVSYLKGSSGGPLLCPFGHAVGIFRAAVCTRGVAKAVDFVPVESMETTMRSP

Structure (SMILES) | IC50 [µM]
CC[C@@H](C)[C@H](NC(=O)OC(C)(C)C)C(=O)N[C@@H](CC(C)C)C(=O)NC(CC(F)F)C(=O)C(=O)O (stereo partly shown) [Compound 5a] | 0.7
CC(C)C[C@H](NC(=O)OC(C)(C)C)C(=O)N[C@@H](CC(C)C)C(=O)NC(CC(F)F)C(=O)C(=O)O (stereo partly shown) [Compound 5b] | 1.2
CC(C)C[C@H](NC(=O)[C@H](Cc1ccccc1)NC(=O)OC(C)(C)C)C(=O)NC(CC(F)F)C(=O)C(=O)O (stereo partly shown) [Compound 5c] | 1.5
CC(C)C[C@H](NC(=O)[C@@H](NC(=O)OC(C)(C)C)C(C)C)C(=O)NC(CC(F)F)C(=O)C(=O)O (stereo partly shown) [Compound 5d] | 0.5
CC(C)C[C@H](NC(=O)[C@H](C)NC(=O)OC(C)(C)C)C(=O)NC(CC(F)F)C(=O)C(=O)O (stereo partly shown) [Compound 5f] | 8.9
CCCC[C@H](NC(=O)OC(C)(C)C)C(=O)N[C@@H](CC(C)C)C(=O)NC(CC(F)F)C(=O)C(=O)O (stereo partly shown) [Compound 5g] | 1.2
CCC[C@H](NC(=O)OC(C)(C)C)C(=O)N[C@@H](CC(C)C)C(=O)NC(CC(F)F)C(=O)C(=O)O (stereo partly shown) [Compound 5h] | 1.5
CC(C)C[C@H](NC(=O)[C@H](CCC(=O)OCc1ccccc1)NC(=O)OC(C)(C)C)C(=O)NC(CC(F)F)C(=O)C(=O)O (stereo partly shown) [Compound 5i] | 5.8
CC(C)C[C@H](NC(=O)[C@H](CCC(=O)O)NC(=O)OC(C)(C)C)C(=O)NC(CC(F)F)C(=O)C(=O)O (stereo partly shown) [Compound 5j] | 0.33
CC(C)C[C@H](NC(=O)[C@H](CCC(N)=O)NC(=O)OC(C)(C)C)C(=O)NC(CC(F)F)C(=O)C(=O)O (stereo partly shown) [Compound 5k] | 2.1
CC(C)C[C@H](NC(=O)[C@H](CC(=O)OCc1ccccc1)NC(=O)OC(C)(C)C)C(=O)NC(CC(F)F)C(=O)C(=O)O (stereo partly shown) [Compound 5l] | 3.5
CC(C)C[C@H](NC(=O)[C@H](CC(=O)O)NC(=O)OC(C)(C)C)C(=O)NC(CC(F)F)C(=O)C(=O)O (stereo partly shown) [Compound 5m] | 1.6
CC(C)C[C@H](NC(=O)[C@@H](NC(=O)OC(C)(C)C)C(C)(C)C)C(=O)NC(CC(F)F)C(=O)C(=O)O (stereo partly shown) [Compound 5n] | 0.72
CC(C)(C)OC(=O)N[C@@H](CCC(=O)O)C(=O)N[C@@H](CC(F)F)C(=O)NC(CC(F)F)C(=O)C(=O)O (stereo partly shown) [Compound 5o] | 0.3
CC(C)C[C@H](NC(=O)[C@H](C/C=C/c1ccccc1)NC(=O)OC(C)(C)C)C(=O)NC(CC(F)F)C(=O)C(=O)O (stereo partly shown) [Compound 5p] | 2.4
CC(C)CC[C@H](NC(=O)OC(C)(C)C)C(=O)N[C@@H](CC(C)C)C(=O)NC(CC(F)F)C(=O)C(=O)O (stereo partly shown) [Compound 5q] | 1.6
CC(C)C[C@H](NC(=O)[C@H](Cc1ccc(Cl)c(Cl)c1)NC(=O)OC(C)(C)C)C(=O)NC(CC(F)F)C(=O)C(=O)O (stereo partly shown) [Compound 5r] | 5.8
CC(C)C[C@H](NC(=O)[C@H](Cc1cccs1)NC(=O)OC(C)(C)C)C(=O)NC(CC(F)F)C(=O)C(=O)O (stereo partly shown) [Compound 5s] | 3.8
CC(C)C[C@H](NC(=O)[C@H](Cc1cccc(Br)c1)NC(=O)OC(C)(C)C)C(=O)NC(CC(F)F)C(=O)C(=O)O (stereo partly shown) [Compound 5t] | 2.5
CC(C)C[C@H](NC(=O)[C@@H](NC(=O)OC(C)(C)C)C1CCCC1)C(=O)NC(CC(F)F)C(=O)C(=O)O (stereo partly shown) [Compound 5u] | 0.4
CC(C)COC(=O)N[C@@H](CCC(=O)O)C(=O)N[C@@H](CC(C)C)C(=O)NC(C=O)CC(F)F (stereo partly shown) [Compound 6a] | 26
CC(C)C[C@H](NC(=O)[C@@H](NC(=O)OCc1ccccc1)C(C)C)C(=O)NC(C=O)CC(F)F (stereo partly shown) [Compound 6b] | 50
